In patent US12673961B2 (Agios Pharmaceuticals, Inc., priority 2022, dated 2026) one finds AC50 data, which are given here for 19 compounds.

For the assay, the target named is T1, human PAH with the R408W mutation (Homo sapiens, UniProt P00439, R408W).
T1 construct: expressed in transfected cells
T1 sequence (P00439 1-452 R408W): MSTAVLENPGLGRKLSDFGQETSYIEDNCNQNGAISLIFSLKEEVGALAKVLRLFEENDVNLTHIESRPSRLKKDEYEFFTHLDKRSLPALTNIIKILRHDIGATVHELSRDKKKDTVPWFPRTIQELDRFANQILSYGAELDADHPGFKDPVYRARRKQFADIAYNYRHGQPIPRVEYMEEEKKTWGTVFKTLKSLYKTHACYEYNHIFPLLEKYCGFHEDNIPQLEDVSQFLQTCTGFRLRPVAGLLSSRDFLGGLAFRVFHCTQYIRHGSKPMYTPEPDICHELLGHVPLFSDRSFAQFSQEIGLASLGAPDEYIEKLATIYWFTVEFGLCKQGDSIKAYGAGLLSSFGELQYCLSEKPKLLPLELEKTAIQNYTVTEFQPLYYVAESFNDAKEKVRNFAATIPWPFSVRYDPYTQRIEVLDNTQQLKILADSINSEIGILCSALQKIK
Kind of assay: Cell Based Phenylalanine Flux Assay.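 Note: Ten-point dose curve from 2-fold serial dilutions, run in duplicate at 0.5% DMSO final, tracer step used 20 µM sepiapterin and 800 µM labeled phenylalanine.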 The following applies: A375 cells expressing human R408W PAH; 24 hrs with compound, then sepiapterin and 13C9,15N-Phenylalanine for 4 hours; 13C-Tyrosine by LC-MS; average where tested multiple times; read-out: AC50.
As to `Cc1cccc2cc([C@@H]3c4nc[nH]c4CCN3C(=O)c3nnc(C(C)C)o3)nn12` [Example 1490, (S)-(5-isopropyl-1,3,4-oxadiazol-2-yl)(4-(7-methylpyrazolo[1,5-a]pyridin-2-yl)-6,7-dihydro-1H-imidazo[4,5-c]pyridin-5(4H)-yl)methanone], the AC50 (usually the midpoint of the concentration-response curve, whichever way the signal moves) was 500 to 1000 nM. As to `O=C(c1nnc(-c2cnn(C(F)(F)F)c2)o1)N1CCc2[nH]cnc2[C@H]1c1cc2cccc(C(F)F)n2n1` [Example 1502, (S)-(4-(7-(difluoromethyl)pyrazolo[1,5-a]pyridin-2-yl)-6,7-dihydro-1H-imidazo [4,5-c]pyridin-5(4H)-yl)(5-(1-(trifluoromethyl)-1H-pyrazol-4-yl)-1,3,4-oxadiazol-2-yl)methanone], the AC50 was 500 to 1000 nM. Turning to `O=C(c1nnc(-c2cnn(C(F)(F)F)c2)o1)N1CCc2[nH]cnc2[C@@H]1c1cc2c(Cl)cccn2n1` [Example 1505], the AC50 is above 5000 nM. For `O=C(c1nnc(-c2ccn(C(F)(F)F)n2)o1)N1CCc2[nH]cnc2[C@H]1c1cc2cccc(Cl)n2n1` [Example 1508, (S)-(4-(7-chloropyrazolo [1,5-a]pyridin-2-yl)-6,7-dihydro-1H-imidazo[4,5-c]pyridin-5(4H)-yl)(5-(1-(trifluoromethyl)-1H-pyrazol-3-yl)-1,3,4-oxadiazol-2-yl)methanone], the AC50 was below 500 nM. On to `O=C(c1nnc(-c2ccn(C(F)(F)F)n2)o1)N1CCc2[nH]cnc2[C@@H]1c1cc2cccc(Cl)n2n1` [Example 1509, (R)-(4-(7-chloropyrazolo [1,5-a]pyridin-2-yl)-6,7-dihydro-1H-imidazo[4,5-c]pyridin-5(4H)-yl)(5-(1-(trifluoromethyl)-1H-pyrazol-3-yl)-1,3,4-oxadiazol-2-yl)methanone], for which the AC50 is above 5000 nM. To `Cc1cccc2cc([C@@H]3c4nc[nH]c4CCN3C(=O)c3nnc(-c4ccn(C(F)(F)F)n4)o3)nn12` [Example 1510, (S)-(4-(7-methylpyrazolo [1,5-a]pyridin-2-yl)-6,7-dihydro-1H-imidazo[4,5-c]pyridin-5(4H)-yl)(5-(1-(trifluoromethyl)-1H-pyrazol-3-yl)-1,3,4-oxadiazol-2-yl)methanone] belongs 500 to 1000 nM; to `Cc1cccc2cc([C@H]3c4nc[nH]c4CCN3C(=O)c3nnc(-c4ccn(C(F)(F)F)n4)o3)nn12` [Example 1511, (R)-(4-(7-methylpyrazolo [1,5-a]pyridin-2-yl)-6,7-dihydro-1H-imidazo[4,5-c]pyridin-5(4H)-yl)(5-(1-(trifluoromethyl)-1H-pyrazol-3-yl)-1,3,4-oxadiazol-2-yl)methanone], 1000 to 5000 nM. For `O=C(c1nnc(C2CCC2)o1)N1CCc2[nH]cnc2[C@@H]1c1cc2ccccn2n1` [Example 1515, (R)-(5-cyclobutyl-1,3,4-oxadiazol-2-yl)(4-(pyrazolo[1,5-a]pyridin-2-yl)-6,7-dihydro-1H-imidazo[4,5-c]pyridin-5(4H)-yl)methanone], the AC50 was above 5000 nM. To `O=C(c1nnc(C2CCC2)o1)N1CCc2[nH]cnc2[C@H]1c1cc2c(Cl)cccn2n1` [Example 1517, (S)-(4-(4-chloropyrazolo [1,5-a]pyridin-2-yl)-6,7-dihydro-1H-imidazo[4,5-c]pyridin-5(4H)-yl)(5-cyclobutyl-1,3,4-oxadiazol-2-yl)methanone] belongs below 500 nM.

With `O=C(c1nnc(C2CCC2)o1)N1CCc2[nH]cnc2[C@H]1c1cc2c(C(F)(F)F)cccn2n1` [Example 1519, (S)-(5-cyclobutyl-1,3,4-oxadiazol-2-yl)(4-(4-(trifluoromethyl)pyrazolo [1,5-a]pyridin-2-yl)-6,7-dihydro-1H-imidazo[4,5-c]pyridin-5(4H)-yl)methanone], the AC50 is below 500 nM. `O=C(c1nnc(C2CCC2)o1)N1CCc2[nH]cnc2[C@H]1c1cc2c(C(F)F)cccn2n1` [Example 1520, (S)-(5-cyclobutyl-1,3,4-oxadiazol-2-yl)(4-(4-(difluoromethyl)pyrazolo [1,5-a]pyridin-2-yl)-6,7-dihydro-1H-imidazo[4,5-c]pyridin-5(4H)-yl)methanone]: the AC50 was below 500 nM. For `Cn1nccc1-c1nnc(C(=O)N2CCc3[nH]cnc3[C@H]2c2cc3cccc(F)n3n2)o1` [Example 1526, (S)-(4-(7-fluoropyrazolo[1,5-a]pyridin-2-yl)-6,7-dihydro-1H-imidazo[4,5-c]pyridin-5(4H)-yl)(5-(1-methyl-1H-pyrazol-5-yl)-1,3,4-oxadiazol-2-yl)methanone], the AC50 lay in the range of 500 to 1000 nM. As for `Cc1cnn(C)c1-c1nnc(C(=O)N2CCc3[nH]cnc3[C@@H]2c2cc3cccc(F)n3n2)o1` [Example 1529, (R)-(5-(1,4-dimethyl-1H-pyrazol-5-yl)-1,3,4-oxadiazol-2-yl)(4-(7-fluoropyrazolo [1,5-a]pyridin-2-yl)-6,7-dihydro-1H-imidazo[4,5-c]pyridin-5(4H)-yl)methanone], the AC50 was in the range of 1000 to 5000 nM. As to `Cn1nccc1-c1nnc(C(=O)N2CCc3[nH]cnc3[C@@H]2c2cc3c(C(F)F)cccn3n2)o1` [Example 1533, (R)-(4-(4-(difluoromethyl)pyrazolo[1,5-a]pyridin-2-yl)-6,7-dihydro-1H-imidazo [4,5-c]pyridin-5(4H)-yl)(5-(1-methyl-1H-pyrazol-5-yl)-1,3,4-oxadiazol-2-yl)methanone], the AC50 was above 5000 nM. Take `O=C(c1nnc(-c2cnccn2)o1)N1CCc2[nH]cnc2[C@H]1c1cc2cccc(C(F)F)n2n1` [Example 1535, (S)-(4-(7-(difluoromethyl)pyrazolo[1,5-a]pyridin-2-yl)-6,7-dihydro-1H-imidazo[4,5-c]pyridin-5(4H)-yl)(5-(pyrazin-2-yl)-1,3,4-oxadiazol-2-yl)methanone]: the AC50 lay within 500 to 1000 nM. To `Cc1cc(-c2nnc(C(=O)N3CCc4[nH]cnc4[C@@H]3c3cc4cccc(C(F)F)n4n3)o2)nn1C` [Example 1536, (R)-(4-(7-(difluoromethyl)pyrazolo[1,5-a]pyridin-2-yl)-6,7-dihydro-1H-imidazo[4,5-c]pyridin-5(4H)-yl)(5-(1,5-dimethyl-1H-pyrazol-3-yl)-1,3,4-oxadiazol-2-yl)methanone] belongs above 5000 nM; to `O=C(c1nnc(-c2cnn(C(F)(F)F)c2)o1)N1CCc2[nH]cnc2[C@@H]1c1cc2c(C(F)(F)F)cccn2n1` [Example 1539, (R)-(5-(1-(trifluoromethyl)-1H-pyrazol-4-yl)-1,3,4-oxadiazol-2-yl)(4-(4-(trifluoromethyl)pyrazolo[1,5-a]pyridin-2-yl)-6,7-dihydro-1H-imidazo[4,5-c]pyridin-5(4H)-yl)methanone], above 5000 nM; to `O=C(c1nnc(-c2cnn(C(F)(F)F)c2)o1)N1CCc2[nH]cnc2[C@@H]1c1cc2c(F)cccn2n1` [Example 1541, (R)-(4-(4-fluoropyrazolo [1,5-a]pyridin-2-yl)-6,7-dihydro-1H-imidazo[4,5-c]pyridin-5(4H)-yl)(5-(1-(trifluoromethyl)-1H-pyrazol-4-yl)-1,3,4-oxadiazol-2-yl)methanone], 1000 to 5000 nM. As for `O=C(c1cnn2cc(-c3ccccn3)ccc12)N1CCc2[nH]cnc2[C@H]1c1cc2c(C(F)(F)F)cccn2n1` [Example 1550, (S)-(6-(pyridin-2-yl)pyrazolo [1,5-a]pyridin-3-yl)(4-(4-(trifluoromethyl)pyrazolo [1,5-a]pyridin-2-yl)-6,7-dihydro-1H-imidazo[4,5-c]pyridin-5(4H)-yl)methanone], the concentration at half-maximal activity (AC50) is below 500 nM.
